In patent US7538094B2, “Composition containing ribavirin and use thereof” (Three Rivers Pharmacueticals, LLC, priority 2002, dated 2009):

Key:
[1] = cited from earlier work
[2] = Angle of repose (flowability); format: physicochemical; details: sample passed through 12 mesh screen, funnel with 1 cm aperture
Source text: Another measure of flowability can be made by determining a material's angle of repose. The angle of repose is a standard test in the pharmaceutical industry to establish the relative flowability of a solid pharmaceutical formulation. (See, e.g., Lachman et al., “The Theory and Practice of Industrial Pharmacy” 3rd Ed. (1986) pp 67-68). A greater angle of repose means a less flowable material. Remington's Pharmaceuticals Sciences lists the angle of repose for glass beads (a high flowing material) at 23 degrees and for granular limestone (a poor flowing material) at 64 degrees. Cohesive materials can be as high as 90 degrees. (See Remington's Pharmaceutical Sciences, 19th Ed. Mack Publishing Co., (1995) p. 1607).
Angle of repose data was collected for ribavirin composition made in accordance with Examples 1 and 3 and compared to bulk ribavirin and a commercial ribavirin product. In determining the angle of repose for the compositions of the present invention and comparative examples thereto, a sample was passed through a 12 mesh screen to break up agglomerates. […] The funnel height was then measured, as well as the diameter (width) of the sample. […] The angle of repose for a given sample was calculated by taking the inverse tangent of the following equation: Tan (a)=2H/W, where H is the height of the funnel from the paper and W is the averaged diameter of the poured sample at its base.

[3] = cited from earlier work; remark: listed apart in the source

In the case of NC(=O)c1ncn([C@@H]2O[C@H](CO)[C@@H](O)[C@H]2O)n1 [ribavirin, 1-β-D-ribofuranosyl-1H-1,2,4-triazole-3-carboxamide], the solubility [1] is given as “water-soluble”, the Repose Angle, Trial 1 ([2]; Trial 1) is given as 44 ° and the Repose Angle, Trial 2 ([2]; Trial 2) is given as 42 °. The bioavailability with food ([3]; administered with a high fat meal) was “increase significantly”, the biological half-life ([3]; in vivo, after multiple oral dosing (steady state)) was “ca. 298 hours” and the “bioavailability (AUC) versus dose” value ([3]; oral administration, Physician's Desk Reference) was “increases linearly with the dose”. The “maximum concentration of the drug in vivo (Cmax) versus dose” value ([3]; oral administration, curvilinear, reaching an asymptote, Physician's Desk Reference) was “does not increase linearly with the dose”.
